Experiment [1] concerns the target T1, (Homo sapiens, UniProt P08069).
T1 construct: human IGF1R kinase domain residues M954-C1367; made in house; host or cells: baculovirus expression (insect cells)
Briefly: IGF1R kinase assay (LCCA), IGF 0P. Type of experiment: biochemical. The essentials: (§1)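 Read-out is percent ATP remaining, detected by luciferase-luciferin luminescence after a 2 h ambient reaction. Reaction contained 4 nM IGF1R kinase domain (residues M954-C1367, baculovirus-made), 3 μM ATP (near KM), 4 μM poly EY, pH 7.5 with Mg2+/Mn2+. Ten inhibitor concentrations; IC50 by Hill-type curve fit.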

The target in a further experiment is T2, IGF 3P (Homo sapiens, UniProt P08069).
T2 construct: human IGF1R kinase domain residues M954-C1367; made in house; host or cells: baculovirus expression (insect cells)
Briefly: IGF1R kinase assay (LCCA), IGF 3P. The format is biochemical. In short, it runs like this:
as §1

Molecules are shown by their SMILES.

T1 sequence (P08069 954-1367): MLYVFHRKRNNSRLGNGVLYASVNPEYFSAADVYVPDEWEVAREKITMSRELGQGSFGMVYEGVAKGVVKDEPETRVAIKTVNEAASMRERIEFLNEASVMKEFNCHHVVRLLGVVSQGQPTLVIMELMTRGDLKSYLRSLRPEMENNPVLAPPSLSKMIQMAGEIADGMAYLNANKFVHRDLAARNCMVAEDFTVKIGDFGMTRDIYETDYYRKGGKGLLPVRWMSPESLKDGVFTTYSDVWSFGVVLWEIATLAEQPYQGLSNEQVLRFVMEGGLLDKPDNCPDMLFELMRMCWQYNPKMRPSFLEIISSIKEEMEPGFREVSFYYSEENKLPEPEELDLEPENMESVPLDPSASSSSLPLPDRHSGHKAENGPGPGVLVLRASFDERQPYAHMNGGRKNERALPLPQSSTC
T2 sequence (P08069 954-1367): as above

Take `CN1CCN(c2cc(Nc3cc(C4CC4)n[nH]3)nc(NCc3cc(-c4ccnc(N)n4)no3)n2)CC1` [Example 660, N^2-{[3-(2-aminopyrimidin-4-yl)isoxazol-5-yl]methyl}-N^4-(3-cyclopropyl-1H-pyrazol-5-yl)-6-(4-methylpiperazin-1-yl)pyrimidine-2,4-diamine]: the concentration for half-maximal inhibition (IC50) (in experiment [1]; at IGF 3P) was 50 to 500 nM each time.

For `CCN1CCN(c2cc(Nc3cc(C4CC4)n[nH]3)nc(NCc3cc(C(C)C)no3)n2)CC1` [Example 661, N^4-(3-cyclopropyl-1H-pyrazol-5-yl)-6-(4-ethylpiperazin-1-yl)-N^2-{[3-(1-methylethyl)isoxazol-5-yl]methyl}pyrimidine-2,4-diamine], the values for the IC50 (in experiment [1]; against IGF 3P) were 50 to 500 nM and less than 50 nM, respectively.

`CC(C)c1cc(CNc2nc(Nc3cc(C4CC4)n[nH]3)cc(N3CCC(CCO)CC3)n2)on1` [Example 662, 2-(1-{6-[(3-cyclopropyl-1H-pyrazol-5-yl)amino]-2-({[3-(1-methylethyl)isoxazol-5-yl]methyl}amino)pyrimidin-4-yl}piperidin-4-yl)ethanol]: the IC50 (in general, the concentration that gives 50% inhibition) in experiment [1] is 50 to 500 nM; against IGF 3P, less than 50 nM.

As for `CC(C)c1cc(CNc2nc(Nc3cc(C4CC4)n[nH]3)cc(N3CCN(CCO)CC3)n2)on1` [Example 663, 2-(4-{6-[(3-cyclopropyl-1H-pyrazol-5-yl)amino]-2-({[3-(1-methylethyl)isoxazol-5-yl]methyl}amino)pyrimidin-4-yl}piperazin-1-yl)ethanol], the 50% inhibitory concentration (IC50) in experiment [1] is 50 to 500 nM; against IGF 3P it was less than 50 nM.
